Earlier results in patent US10993890B2, “Antifungal solution and foot wipe” (PELLI SKIN CO., LLC, priority 2018, dated 2021).

Legend:
[1] = octanol/water partition coefficient of the solvent
skin cells = details: 3% ethanol applied to skin cells over the course of two days

LogKow [1]	Compound	increase of cell death (skin cells) [%]
0.3792	CC1COCO1 (centres unmarked) [4-Methyl-1,3-dioxolane]	
−1.082	OC1COCOC1 [5-Hydroxy-1,3-dioxane]	

Continued, compound first:

Compound	LogKow [1]	increase of cell death (skin cells) [%]
1,3-dioxolan	−0.37	
C1CCOCOC1 [1,3-Dioxepane]	0.7709	
CCO [ethanol]		26
